Measured values: patent publication US12527773B2, “Flavi-block: a pan-flavivirus inhibitor” (Baden-Württemberg Stiftung GmbH, priority 2020, dated 2026)
Read-outs that look alike come from different tables or passages of the source.

Key:
[1] = Pharmacokinetic study in Balb/c mice, peroral administration; type: in vivo; settings: for Plasma concentration, Group A-D: single animals
Protocol: Study design, animal selection, handling and treatment were all in accordance with the study protocols and institutional animal care and use guidelines. Male Balb/c mice (9-10 weeks old, body weight 22.3 to 38.1 g and average body weight across all groups 31.4 g, SD=3.20 g) were used in this study. The animals were randomly assigned to the treatment groups before the pharmacokinetic study; all animals were fasted for 4 h before dosing. Six time points for PO (15, 30, 60, 120, 240 and 360 min) and IV (5, 15, 30, 60, 120 and 240 min) routes were used in this pharmacokinetic study. Each of the PO and IV time point treatment groups included 4 animals. There was also control group of 2 animals. Dosing was done according to the treatment schedules outlined in Table 3. Mice were injected IV with 2,2,2-tribromoethanol at the dose of 150 mg/kg prior to taking blood. Blood collection was performed from the orbital sinus in microtainers containing K2EDTA. Animals were sacrificed by cervical dislocation after blood samples collection. All samples were immediately prepared, flash-frozen and stored at −70° C. until subsequent bioanalysis.
Samples Processing Plasma samples ([…]) were mixed with […] of IS solution. After mixing by pipetting and centrifuging for 4 min at 6,000 rpm, […] of each supernatant was injected into LC-MS/MS system. Solution of compound IS-02-03 (200 ng/ml in acetonitrile-methanol mixture, 1:1, v/v) was used as internal standard (IS) for quantification of C10 in plasma samples. Samples Analysis The concentrations of C10 were determined using high performance liquid chromatography/tandem mass spectrometry (HPLC-MS/MS). Shimadzu H PLC system comprised of 2 isocratic pumps LC-10Advp, an autosampler SIL-HTc, a sub-controller FCV-14AH and a degasser DGU-14A. Mass spectrometric analysis was performed using an API 3000 (triple-quadrupole) instrument from AB Sciex (Canada) with an electro-spray (ESI) interface. The data acquisition and system control was performed using Analyst 1.5.2 software from AB Sciex. HPLC-MS/MS Conditions
The pharmacokinetic data analysis was performed using non-compartmental, bolus injection or extravascular input analysis models in WinNonlin 5.2 (PharSight). Data below LLOQ were presented as missing to improve validity of T1/2 calculations. No outlier data points were removed from calculations. The bioavailability for the peroral route was calculated as: […]

[2] = Metabolic stability in mouse liver microsomes; settings: for % Remain. Mean of 2: with NADPH; for % Remain. without cofactor, Mean of 2: without NADPH cofactor
Protocol: Microsomal incubations were carried out in 96-well plates in 5 aliquots of […] each (one for each time point). […] Control incubations were performed replacing the NADPH-cofactor system with PBS. […] Incubations were performed in duplicates. Five time points over 40 minutes had been analyzed. The reactions were stopped by adding 12 volumes of 90% acetonitrile-water to incubation aliquots, followed by protein sedimentation by centrifuging at 5500 rpm for 3 minutes. […]. Supernatants were analyzed using the HPLC system coupled with tandem mass spectrometer.
The elimination constant (kel), half-life (t½) and intrinsic clearance (Clint) were determined in plot of In(AUC) versus time, using linear regression analysis (In order to indicate the quality of the linear regression analysis, the R (correlation coefficient) values are provided. In some cases, the last time point is excluded from the calculations to ensure acceptable logarithmic linearity of decay): […]

HCV = assay: IC50 in established virological assays (Table 1), HCV; type: cell-based, Hepatitis C virus
Protocol: In summary, a set of C10 derivatives (FIG. 12) was designed, synthesized and tested against HCV (which is considered as an established system to monitor drug effects against Flaviviridae) as well as DENV for comprehensive structure-activity relationship (SAR) analysis and target validation. IC50 and CC50 values for compound C10 were determined in established virological assays (Table 1). […] Further, said experiments underline the specificity of compound C10 for flaviviruses.

DENV1 = assay: Plaque assay of released virus, DENV1-infected Vero cells; type: cell-based; settings: Dengue virus
Protocol: Vero cells were infected with DENV1-4 at an MOI of 1 for 2 h (post infection, p.i., (A)), after which virus was removed, and fresh maintenance medium containing 2% FCS together with the indicated concentration of C10 added. For co-treat condition (c.t., (B)), Vero cells were infected with DENV1-4 at an MOI of 1 in the presence of C10 for 2 h, followed by removal of the virus/C10 inoculums, and addition of fresh 2% fetal calf serum maintenance medium. […] Results represent the mean ±SD for duplicate wells from a single assay, representative of 2 independent experiments (cf. Tables 2A and 2B, infra, for pooled data).
Vero and BHK-21 cells were maintained in DMEM media supplemented with 10% heat-inactivated FBS at 37° C. in a humidified incubator supplemented with 5% CO2; A549 cells were maintained in F-12K medium supplemented with 10% heat-inactivated Fetal Bovine Serum (FBS), 2 mM L-glutamine, 50 U/I penicillin, 0.05 mg/l streptomycin. […] Viral titer was subsequently determined by plaque assay (see below).
Vero cells were seeded into 24-well plates at a density of 2×10^5 cells/well and grown overnight in culture medium at 37° C. with 5% CO2 prior to infection with RSV, KUNV, ZIKV as indicated. […] The stain was removed by rinsing the cells with tap water, and the viral plaques were counted visually. […]

## CCN1/C(=C\C=C\c2sc3cc(NC(C)=O)ccc3[n+]2CC)Sc2cc(NC(C)=O)ccc21.[I-] [C10, 6-acetamido-2-((1E,3E)-3-(6-acetamido-3-ethylbenzo[d]thiazol-2(3H)-ylidene)prop-1-en-1-yl)-3-ethylbenzo[d]thiazol-3-ium iodide]
[1]; PO 10 mg/kg versus IV 5 mg/kg
  oral bioavailability: zero
[1]; PO 10 mg/kg, 15 min
  Plasma concentration, Mean: 0 ng(ml)
[1]; PO 10 mg/kg, 15 min, below LLOQ 10 ng/ml designated as zero
  Plasma concentration, Group A-D: 0 ng(ml)
[1]; PO 10 mg/kg, 30 min
  Plasma concentration, Mean: 0 ng(ml)
[1]; PO 10 mg/kg, 30 min, below LLOQ designated as zero
  Plasma concentration, Group A-D: 0 ng(ml)
[1]; PO 10 mg/kg, 60 min
  Plasma concentration, Mean: 0 ng(ml)
[1]; PO 10 mg/kg, 60 min, below LLOQ designated as zero
  Plasma concentration, Group A-D: 0 ng(ml)
[1]; PO 10 mg/kg, 120 min
  Plasma concentration, Mean: 0 ng(ml)
[1]; PO 10 mg/kg, 120 min, below LLOQ designated as zero
  Plasma concentration, Group A-D: 0 ng(ml)
[1]; PO 10 mg/kg, 240 min
  Plasma concentration, Mean: 0 ng(ml)
[1]; PO 10 mg/kg, 240 min, below LLOQ designated as zero
  Plasma concentration, Group A-D: 0 ng(ml)
[1]; PO 10 mg/kg, 360 min
  Plasma concentration, Mean: 0 ng(ml)
[1]; PO 10 mg/kg, 360 min, below LLOQ designated as zero
  Plasma concentration, Group A-D: 0 ng(ml)
[1]; PO 10 mg/kg, LLOQ 10 ng/ml
  plasma levels following PO dosing: below the lower limit of quantitation
[2]; male, Balb/c, mouse, microsomes, pH 7.4
  half-life at 2 mM: 5.79 h
[2]; mouse liver microsomes
  CIint: 5 µL/min/mg
  Kel: 0.002 min⁻¹
[2]; mouse, microsomes
  stability in mouse hepatic microsomal test system: good stability
[2]; 0.42 mg protein per ml, 0 min
  % Remain. Mean of 2: 100%
[2]; 10 min
  % Remain. Mean of 2: 100%
[2]; 20 min
  % Remain. Mean of 2: 96%
[2]; 30 min
  % Remain. Mean of 2: 95%
[2]; 40 min
  % Remain. Mean of 2: 88%
  % Remain. without cofactor, Mean of 2: 86%
[2]; 0 min
  % Remain. without cofactor, Mean of 2: 100%
HCV
  IC50: 180 nM
HCV; Hepatitis C virus
  IC50: ~200 nM
DENV1; read-out: EC50 from plaque assays, DENV1, c.t. (co-treat)
  EC50: 40 nM
DENV1; read-out: EC50 from plaque assays, DENV1, p.i. (post infection)
  EC50: 110 nM
